Test results as given in patent US11453674B2, “Heterocyclic compound, preparation method and use thereof in medicine” (SUZHOU SINOVENT PHARMACEUTICALS CO., LTD., priority 2019, dated 2022).

Target: T1, OAT1 (Homo sapiens, UniProt Q4U2R8)
T1 construct: host or cells: HEK293/OAT1 (hygromycin B selection)
T1 sequence (Q4U2R8 1-563): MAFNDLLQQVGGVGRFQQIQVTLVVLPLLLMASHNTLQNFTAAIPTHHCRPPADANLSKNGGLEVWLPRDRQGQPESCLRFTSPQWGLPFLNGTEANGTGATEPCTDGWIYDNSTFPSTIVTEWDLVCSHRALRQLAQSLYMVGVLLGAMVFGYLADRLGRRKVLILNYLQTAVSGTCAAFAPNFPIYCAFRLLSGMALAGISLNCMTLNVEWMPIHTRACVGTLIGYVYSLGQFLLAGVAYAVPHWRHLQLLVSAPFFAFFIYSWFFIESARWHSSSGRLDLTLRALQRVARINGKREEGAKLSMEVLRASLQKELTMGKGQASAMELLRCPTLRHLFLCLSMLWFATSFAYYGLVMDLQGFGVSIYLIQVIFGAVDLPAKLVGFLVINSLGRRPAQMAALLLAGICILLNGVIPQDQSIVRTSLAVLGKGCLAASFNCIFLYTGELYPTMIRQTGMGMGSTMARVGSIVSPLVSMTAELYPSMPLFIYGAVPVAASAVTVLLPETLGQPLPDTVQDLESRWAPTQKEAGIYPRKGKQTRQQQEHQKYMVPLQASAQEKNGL
Assay: Inhibition of 6-carboxyfluorescein uptake in HEK293/OAT1 cells
Format: cell-based
Details: ratio of OAT1 IC50 to hURAT1 IC50 (selectivity)
Protocol: 1. Reagents and Consumables
2. Culture Media and Solutions
Thaw medium: 90% DMEM+10% FBS+1× Pen/Strep, preserved at 4° C. for later use.
Culture medium: 90% DMEM+10% FBS+1× Pen/Strep+100 μg/mL Hygromycin B, preserved at 4° C. for later use.
5× Matrigel: 1 vial of Matrigel was thawed overnight at 4° C., then diluted to 500 mL with cold DMEM. The resulting solution was preserved at 4° C. for later use after subpackaging.
Uptake assay buffer: 487.5 mL HBSS buffer was mixed with 12.5 mL 1M HEPES, with the final HEPES concentration being 25 mM. This was prepared right before the experiment.
30 mM probenecid: 2 mg of the powder was dissolved in 233.62 μL of 100% DMSO. The resulting solution was preserved at −20° C. for later use after subpackaging.
The resulting solution was preserved at −20° C. for later use after subpackaging.
The resulting solution was preserved away from light at 4° C. for later use after subpackaging.
Envision multimode plate reader (with parameters as follows)
Emission wavelength: 590 nm
4. Experimental Procedures
The cells were quickly taken out from a liquid nitrogen tank and shaken in a water bath at 37° C. until completely thawed. The cell suspension was quickly added to a pre-heated culture medium and centrifuged at 1000 rpm for 5 min. The supernatant was discarded. A fresh pre-heated culture medium was added for resuspension. The cell suspension was transferred into a 100 mm dish and incubated at 37° C. at 5% CO2.
Typically, the cells were passaged every 2-3 days in a ratio of 1:3 to 1:5.
5× Matrigel was added to a 384-well cell plate at 5 μL/well for incubation in an incubator at 37° C. for 30 min, followed by digestion.
Cells were collected after digestion, counted, resuspended at 1×10^6 cells/mL using a culture medium, and added to a coated plate at 60 μL/well by using a Multidrop Combi to give a cell density of 6×10^4 cells/well, followed by incubating overnight at 37° C. at 5% CO2.
3) Preparation of Uptake Assay Buffer
On the day of experiment, fresh buffer was prepared as needed.
4) Preparation of Compounds (Using ECHO)
Working solutions of 11 concentrations were prepared for plotting a curve with stock solutions of 3 concentrations using PlateMap. The 3 concentrations were 30 mM, 0.3 mM, 0.003 mM, all formulated in DMSO.
5) Preparation of a Mixed Solution of 6-Carboxyfluorescein (6 μM) and Compounds
According to amount used, 6-carboxyfluorescein (1 mM) was diluted with uptake assay buffer to give a diluted 6-carboxyfluorescein solution (6 μM). […] The mixture was preserved away from light for later use. The concentration of DMSO was 2% at this time.
The cells were incubated overnight before the culture medium was carefully removed. Then 80 μL of uptake assay buffer was added to each well at room temperature for washing the cells 3 times. After washing, 20 μL of uptake assay buffer was added to each well.
The mixed solution of 6-CF (6 μM) and compounds, prepared in step 5, was transferred to a cell plate at 20 μL/well with Bravo. The mixed solution was centrifuged at 400 rpm for 1 min, and incubated away from light at room temperature for 10 min. At this time, the concentration of 6-CF became 3 μM, the concentration of the compound became the final concentration, and the concentration of DMSO became 1%.
The cells were washed 3 times with pre-cooled uptake assay buffer at 80 μL/well, to remove unbound 6-CF.
The plate was read on the Envision. The data were recorded and processed to calculate IC50.
According to the fluorescence signals of HPE and ZPE on each cell plate, the inhibition rate (%) of the compound in each well on the cell plate was calculated.
The XLfit software was used to plot the curve for calculating the IC50 values of the compounds. The IC50 value of the positive compound was also one of the criteria for controlling the quality of each experiment.

Point of comparison: `CCc1nc2cc(C(F)(F)F)ncn2c1C(=O)c1cc(Br)c(O)c(Br)c1` [Example 7, (3,5-dibromo-4-hydroxyphenyl)(2-ethyl-7-(trifluoromethyl)imidazo[1,2-c]pyrimidin-3-yl)methanone], “IC50, OAT1/IC50, hURAT1” value 14.2. Against it:
- CCc1nc2ncc(Br)cn2c1C(=O)c1cc(Br)c(O)c(Br)c1 [Example 3, (6-bromo-2-ethylimidazo[1,2-a]pyrimidin-3-yl)(3,5-dibromo-4-hydroxyphenyl)methanone] — lower, 13.8
- CCc1nc2ncc(F)cn2c1C(=O)c1cc(Br)c(O)c(Br)c1 [Example 4, (3,5-dibromo-4-hydroxyphenyl)(2-ethyl-6-fluoroimidazo[1,2-a]pyrimidin-3-yl)methanone] — higher, 55.0
- CCc1nc2ncc(C(F)(F)F)cn2c1C(=O)c1cc(Br)c(O)c(Br)c1 [Example 5, (3,5-dibromo-4-hydroxyphenyl)(2-ethyl-6-(trifluoromethyl)imidazo[1,2-a]pyrimidin-3-yl)methanone] — higher, 34.4
- CCc1nc2ncc(Cl)cn2c1C(=O)c1cc(Br)c(O)c(Br)c1 [Example 6, (6-chloro-2-ethylimidazo[1,2-a]pyrimidin-3-yl)(3,5-dibromo-4-hydroxyphenyl)methanone] — higher, 33.6
- CCn1nc2ccc(F)cc2c1C(=O)c1cc(Br)c(O)c(Br)c1 [Example 9, (3,5-dibromo-4-hydroxyphenyl)(2-ethyl-5-fluoro-2H-indazol-3-yl) methanone] — lower, 7.6
- CCc1nc2ncc(F)cn2c1C(=O)c1cc(Br)c(O)c(C#N)c1 [Example 14, 3-bromo-5-(2-ethyl-6-fluoroimidazo[1,2-a]pyrimidine-3-carbonyl)-2-hydroxybenzonitrile] — lower, 3.5
- CCn1nc2ccncc2c1C(=O)c1cc(Br)c(O)c(Br)c1 [Example 16, (3,5-dibromo-4-hydroxyphenyl)(2-ethyl-2H-pyrazolo[4,3-c]pyridin-3-yl)methanone] — higher, 17.4
- CCc1nc2ncc(F)cn2c1C(=O)c1cc(Br)c(O)c(C(F)(F)F)c1 [Example 18, (3-bromo-4-hydroxy-5-(trifluoromethyl)phenyl)(2-ethyl-6-fluoroimidazo[1,2-a]pyrimidin-3-yl)methanone] — higher, 24.5
- CCc1nc2ncccn2c1C(=O)c1cc(Br)c(O)c(Br)c1 [Example 20, 2,6-dibromo-4-([2-ethylimidazo[1,2-a]pyrimidin-3-yl]carbonyl) phenol] — lower, 8.0
- CCc1nc2cc(Cl)ncn2c1C(=O)c1cc(Br)c(O)c(Br)c1 [Example 21, (7-chloro-2-ethylimidazo[1,2-f]pyrimidin-3-yl)(3,5-dibromo-4-hydroxyphenyl)methanone] — lower, 3.8
- CCc1nc2ncccn2c1C(=O)c1cc(Br)c(O)c(C#N)c1 [Example 22, 3-bromo-5-(2-ethylimidazo[1,2-a]pyrimidine-3-carbonyl)-2-hydroxybenzonitrile] — lower, 2.0
- CCc1nc2ncccn2c1C(=O)c1cc(Br)c(O)c(C(F)(F)F)c1 [Example 23, (3-bromo-4-hydroxy-5-(trifluoromethyl)phenyl)(2-ethylimidazo[1,2-a]pyrimidin-3-yl)methanone] — lower, 5.2
